Reference: PMC9933715 (Antimicrobial Agents and Chemotherapy, 2023)
Where two headings read alike, the source gives them in different places.

What was measured:
[1] = system: DENV-R2A (Rluc-expressing DENV, serotype 2 strain 16681); assay: microbe, parasite or virus in culture; type: cell-based, Dengue virus; conditions: for activity at 50 µM: Dengue virus, Huh7.5, 48 h
Huh7.5 cells = assay: Cell viability, CellTiter-Glo luminescent assay; conditions: for Cell viability (fold DMSO) Mean: deconvolution screen, singletons, uninfected Huh7.5
[2] = system: ZIKV-R2A (strain FSS13025); assay: microbe, parasite or virus in culture; type: cell-based; conditions: Zika virus, Huh7.5, 48 h, read-out: ZIKV-R2A replication (fold DMSO) Mean
[3] = read-out: DENV-R2A replication (fold DMSO) Mean, deconvolution screen, singletons, 50 µM, Huh7.5, 2 days postinfection
[4] = read-out: DENV-R2A replication (Fold DMSO), 6A1HI analogues, test concentration = 50 µM, Huh7.5 cells
[5] = read-out: DENV-R2A replication (Fold DMSO), Table S3, NPP3C analogues, 50 µM, Huh7.5, 2 days postinfection
[6] = read-out: DENV-R2A replication (fold DMSO), Table 2, 6A1HI analogues, 50 μM, Huh7.5, 2 days postinfection
[7] = 6A1HI analogues, test concentration = 50 µM, Huh7.5 cells
[8] = Table 2, 6A1HI analogues, 50 μM, Huh7.5, 2 days
[9] = Table S3, NPP3C analogues, 50 µM, Huh7.5
[10] = Table S3, NPP3C analogues, 50 µM, Huh7.5, 2 days postinfection

SMILES	activity at 50 µM [1, 3]	Cell viability (fold DMSO) Mean (Huh7.5 cells; 50 µM)	activity at 50 µM [2]	also measured
Clc1[nH]ccc2nccc1-2 [PS-4776, Clc1[nH]ccc2nccc12]	84%	1.13 fold DMSO	100%	
Cc1ccnn1-c1ccccc1 [PS-4283, Cc1ccnn1c2ccccc2]	104%	1.07 fold DMSO	106%	
COC(=O)c1cc(Br)no1 [PS-3994, COC(=O)c1onc(Br)c1]	98%	1.07 fold DMSO	114%	
CC1(C)CC(O)CC(C)(C)N1 [PS-5856, CC1(C)CC(O)CC(C)(C)N1]	97%	1.06 fold DMSO	110%	
Clc1ccc(N2CCNCC2)nc1 [AS-5607, Clc1ccc(nc1)N2CCNCC2]	76%	1.13 fold DMSO	81%	
CNC(=O)c1cc(Br)c[nH]1 [Compound 10Y-0822, CNC(=O)c1cc(Br)c[nH]1]	75%	0.89 fold DMSO	77%	
NC(=O)c1ccco1 [Compound 2B-052, NC(=O)c1occc1]	98%	1.17 fold DMSO	112%	
Cn1cncc1C(=O)O [AS-5483, Cn1cncc1C(=O)O]	99%	1.12 fold DMSO	99%	
O=C(c1ccccc1)C1(O)CCCCC1 [FS-3226, OC1(CCCCC1)C(=O)c2ccccc2]	96%	1.07 fold DMSO	109%	
CC(=O)c1ccccc1-n1ccnc1 [Compound 1B-028, CC(=O)c1ccccc1n2ccnc2]	59%	0.78 fold DMSO	58%	
Clc1ncc(Cn2ccnc2)s1 [Compound 8P-013, Clc1ncc(Cn2ccnc2)s1]	104%	0.94 fold DMSO	118%	
NC(=O)C1CCCNC1 (centres unmarked) [PS-3699, NC(=O)C1CCCNC1]	95%	0.94 fold DMSO	113%	
Cc1onc(-c2ccccc2)c1N [PS-4715, Cc1onc(c1N)c2ccccc2]	88%	1.05 fold DMSO	113%	
CNC(=O)Nc1ccc(F)c(C)c1 [MS-0046, CNC(=O)Nc1ccc(F)c(C)c1]	96%	1.00 fold DMSO	97%	
O=C(C1CCNCC1)N1CCCC1 [PS-4906, O=C(C1CCNCC1)N2CCCC2]	97%	0.90 fold DMSO	117%	
Nc1cccc(Cl)c1 [PS-5280, Nc1cccc(Cl)c1]	111%	0.98 fold DMSO	116%	
O=C1CCCc2cc(O)ccc21 [MS-2425, Oc1ccc2C(=O)CCCc2c1]	98%	1.05 fold DMSO	92%	
OCC1(c2ccc(Cl)cc2)CC1 [RS-1014, OCC1(CC1)c2ccc(Cl)cc2]	84%	1.07 fold DMSO	93%	
CC(=O)Nc1ccc(OC(F)F)cc1 [PS-6506, CC(=O)Nc1ccc(OC(F)F)cc1]	105%	1.10 fold DMSO	110%	
O=C1CCc2ccccc21 [PS-5770, O=C1CCc2ccccc12]	103%		103%	
N[C@H]1CC[C@H](O)CC1 [PS-5466, N[C@@H]1CC[C@@H](O)CC1]	96%	0.99 fold DMSO	115%	
Brc1cnc(N2CCCC2)nc1 [PS-6092, Brc1cnc(nc1)N2CCCC2]	105%	1.11 fold DMSO	103%	
COc1ccc(CO)c(OC)c1 [PS-4550, COc1ccc(CO)c(OC)c1]	31%	0.92 fold DMSO	34%	

SMILES	activity at 50 µM [1, 3]	Cell viability (fold DMSO) Mean (Huh7.5 cells; 50 µM)	activity at 50 µM [2]	also measured
OCc1cccc(CO)n1 [PS-5751, OCc1cccc(CO)n1]	100%	0.90 fold DMSO	113%	
N[C@@H]1c2ccccc2C[C@@H]1O [PS-4272, N[C@H]1[C@@H](O)Cc2ccccc12]	93%	1.08 fold DMSO	102%	
Clc1ccc2nccnc2c1 [PS-3410, Clc1ccc2nccnc2c1]	95%	1.20 fold DMSO	108%	
CN1C(=O)Cc2ccccc2C1=O [Compound 10L-733, CN1C(=O)Cc2ccccc2C1=O]	101%	0.94 fold DMSO	114%	
O=C1CCNc2c(F)cccc21 [PS-6636, Fc1cccc2C(=O)CCNc12]	87%	1.14 fold DMSO	86%	
Cc1onc(-c2ccccc2)c1CN [PS-4242, Cc1onc(c1CN)c2ccccc2]	91%	0.92 fold DMSO	103%	
O=C1CCC(c2ccccc2)=NN1 [Compound 7L-571S, O=C1CCC(=NN1)c2ccccc2]	107%	0.99 fold DMSO	124%	
CCNC(=O)N1CCC(O)CC1 [SS-4002, CCNC(=O)N1CCC(O)CC1]	103%	1.05 fold DMSO	98%	
CC(=O)Nc1cc(C)ccc1F [MS-0037, CC(=O)Nc1cc(C)ccc1F]	103%	1.28 fold DMSO	114%	
OC[C@@H]1Cc2ccccc2CN1 [PS-6029, OC[C@@H]1Cc2ccccc2CN1]	99%	0.97 fold DMSO	114%	
Cn1cc(Br)c2c(N)ncnc21 [EK-0205, Cn1cc(Br)c2c(N)ncnc12]	51%	0.87 fold DMSO	63%	
CC(=O)c1cc(Br)cs1 [Compound 10X-0139, CC(=O)c1cc(Br)cs1]	98%	1.20 fold DMSO	108%	
NC(=O)NCc1cccc(Cl)c1 [Compound 9M-050, NC(=O)NCc1cccc(Cl)c1]	100%	1.27 fold DMSO	110%	
CNC(=O)c1cn(C)c2ccccc12 [Compound 9T-1495, CNC(=O)c1cn(C)c2ccccc12]	103%		98%	
CC(=O)c1cccc2cn[nH]c12 [Compound 9]				inhibitory activity against DENV-R2A (SAR, in words) ([1]; 6A1HI analogues, 50 μM): inhibitory activity was completely lost; activity at 50 µM [1, 4]: 90%; activity at 50 µM [1, 5]: 107%; activity at 50 µM [1, 6]: 90%; Cell viability (Fold DMSO) (Huh7.5 cells; [7]): 1.03 Fold DMSO; Cell viability (Fold DMSO) (Huh7.5 cells; [8]): 1.03 fold DMSO; Cell viability (Fold DMSO) (Huh7.5 cells; [9]): 0.96 Fold DMSO
O=C(c1ccccc1)c1cccnc1 [Compound 33]				DENV-R2A replication (Fold DMSO) [1, 7]: 0.95 Fold DMSO; DENV-R2A replication (Fold DMSO) [1, 10]: 1.14 Fold DMSO; Cell viability (Fold DMSO) (Huh7.5 cells; [7]): 0.89 Fold DMSO; Cell viability (Fold DMSO) (Huh7.5 cells; [9]): 0.95 Fold DMSO
CC(=O)c1ccc2cn(C)nc2c1 [Compound 4]				inhibitory activity against DENV-R2A (SAR, in words) ([1]; 6A1HI analogues, 50 μM): loss of inhibitory activity; activity at 50 µM [1, 4]: 97%; activity at 50 µM [1, 5]: 105%; activity at 50 µM [1, 6]: 97%; Cell viability (Fold DMSO) (Huh7.5 cells; [7]): 0.75 Fold DMSO; Cell viability (Fold DMSO) (Huh7.5 cells; [8]): 0.75 fold DMSO; Cell viability (Fold DMSO) (Huh7.5 cells; [9]): 0.96 Fold DMSO
O=C(Nc1ccccc1)c1ccc(C(F)(F)F)nc1 [Compound 62]				DENV-R2A replication (Fold DMSO) [1, 7]: 0.93 Fold DMSO; DENV-R2A replication (Fold DMSO) [1, 10]: 0.71 Fold DMSO; Cell viability (Fold DMSO) (Huh7.5 cells; [7]): 1.03 Fold DMSO; Cell viability (Fold DMSO) (Huh7.5 cells; [9]): 0.79 Fold DMSO
O=C(NNc1ccccc1)c1ccncc1 [Compound 54]				activity at 50 µM [1, 4]: 106%; activity at 50 µM ([1]; read-out: DENV-R2A replication (fold DMSO), Table 1, NPP3C analogues, 50 μM, Huh7.5, 2 days postinfection): 37%; antiviral activity against DENV-R2A (SAR, in words) ([1]; NPP3C analogues, 50 μM): retains little activity, if any; Cell viability (Fold DMSO) (Huh7.5 cells; [7]): 0.95 Fold DMSO; Cell viability (Fold DMSO) (Huh7.5 cells; Table 1, NPP3C analogues, 50 μM, Huh7.5, 2 days): 0.67 fold DMSO; Cell viability (Fold DMSO) (Huh7.5 cells; [9]): 0.67 Fold DMSO
N#CC(Cc1cccnc1)C(=O)Nc1ccccc1 (centres unmarked) [Compound 68]				DENV-R2A replication (Fold DMSO) [1, 7]: 1.02 Fold DMSO; DENV-R2A replication (Fold DMSO) [1, 10]: 1.79 Fold DMSO; Cell viability (Fold DMSO) (Huh7.5 cells; [7]): 1.03 Fold DMSO; Cell viability (Fold DMSO) (Huh7.5 cells; [9]): 0.93 Fold DMSO
O=C(Nc1ccncc1)c1ccccc1 [Compound 28]				DENV-R2A replication (Fold DMSO) [1, 7]: 0.09 Fold DMSO; DENV-R2A replication (Fold DMSO) [1, 10]: 1.05 Fold DMSO; Cell viability (Fold DMSO) (Huh7.5 cells; [7]): 0.48 Fold DMSO; Cell viability (Fold DMSO) (Huh7.5 cells; [9]): 1.05 Fold DMSO
Nc1ccc(C(=O)Nc2ccccc2)cc1 [Compound 61]				DENV-R2A replication (Fold DMSO) [1, 7]: 1.09 Fold DMSO; DENV-R2A replication (Fold DMSO) [1, 10]: 0.98 Fold DMSO; Cell viability (Fold DMSO) (Huh7.5 cells; [7]): 0.83 Fold DMSO; Cell viability (Fold DMSO) (Huh7.5 cells; [9]): 0.98 Fold DMSO
